In one assay the target is T1, FLT3-D835Y (Homo sapiens, UniProt P36888, D835Y).
T1 construct: purchased Invitrogen PV3967
T1 sequence (P36888 27-993 D835Y): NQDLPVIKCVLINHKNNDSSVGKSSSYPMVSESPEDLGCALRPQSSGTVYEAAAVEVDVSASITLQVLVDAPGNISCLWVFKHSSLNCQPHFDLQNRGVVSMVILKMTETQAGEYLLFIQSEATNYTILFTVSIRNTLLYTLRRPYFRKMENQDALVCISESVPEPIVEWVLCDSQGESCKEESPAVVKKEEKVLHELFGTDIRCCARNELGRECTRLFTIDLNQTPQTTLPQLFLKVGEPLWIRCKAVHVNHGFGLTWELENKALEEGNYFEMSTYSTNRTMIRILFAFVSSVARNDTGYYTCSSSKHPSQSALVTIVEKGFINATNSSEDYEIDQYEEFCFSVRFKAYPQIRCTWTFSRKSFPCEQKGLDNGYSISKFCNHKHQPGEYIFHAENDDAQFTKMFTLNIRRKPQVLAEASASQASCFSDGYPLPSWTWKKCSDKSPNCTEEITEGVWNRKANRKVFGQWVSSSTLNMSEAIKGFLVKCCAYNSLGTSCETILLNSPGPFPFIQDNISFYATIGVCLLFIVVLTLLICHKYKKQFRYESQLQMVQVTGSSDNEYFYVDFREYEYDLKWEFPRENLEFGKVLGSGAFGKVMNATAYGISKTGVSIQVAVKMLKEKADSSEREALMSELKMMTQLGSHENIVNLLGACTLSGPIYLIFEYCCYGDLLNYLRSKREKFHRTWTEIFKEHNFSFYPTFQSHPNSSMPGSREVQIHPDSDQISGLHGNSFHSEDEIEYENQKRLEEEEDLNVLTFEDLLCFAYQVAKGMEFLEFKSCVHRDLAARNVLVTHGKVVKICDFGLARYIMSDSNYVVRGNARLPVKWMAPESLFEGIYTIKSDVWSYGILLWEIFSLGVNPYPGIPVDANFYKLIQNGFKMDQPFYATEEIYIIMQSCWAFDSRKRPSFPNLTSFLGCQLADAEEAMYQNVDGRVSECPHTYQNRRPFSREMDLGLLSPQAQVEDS
The experiment in a line: FLT3-D835Y recombinant enzyme kinase assay (AlphaScreen). In kind it is biochemical. The note with it: 8 pt, GMean. Put shortly:
(§1)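 Substrate 30 nM biotin-GG(EEEEY)10EE; ATP 10 μM (FLT3-ITD, FLT3-D835Y) or 100 μM (c-KIT). Detection: AlphaScreen PY20 kit, 10 μg/mL beads, RT 20 + 60 min. Readout 580 nm; IC50.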

In a further assay the target is T2, c-KIT (Homo sapiens, UniProt P10721).
T2 construct: purchased Millipore 14-559K
The experiment in a line: c-KIT recombinant enzyme kinase assay (AlphaScreen). In kind it is biochemical. The note with it: 100 ATP, 8 pt. Put shortly: as §1
(In Alpha technology, singlet oxygen from a donor bead excites a nearby acceptor bead.)

The text below walks through data of patent publication US10160747B2, “Compounds and methods for kinase modulation, and indications therefor” (Plexxikon Inc., priority 2016, dated 2018).

T2 sequence (P10721 26-976): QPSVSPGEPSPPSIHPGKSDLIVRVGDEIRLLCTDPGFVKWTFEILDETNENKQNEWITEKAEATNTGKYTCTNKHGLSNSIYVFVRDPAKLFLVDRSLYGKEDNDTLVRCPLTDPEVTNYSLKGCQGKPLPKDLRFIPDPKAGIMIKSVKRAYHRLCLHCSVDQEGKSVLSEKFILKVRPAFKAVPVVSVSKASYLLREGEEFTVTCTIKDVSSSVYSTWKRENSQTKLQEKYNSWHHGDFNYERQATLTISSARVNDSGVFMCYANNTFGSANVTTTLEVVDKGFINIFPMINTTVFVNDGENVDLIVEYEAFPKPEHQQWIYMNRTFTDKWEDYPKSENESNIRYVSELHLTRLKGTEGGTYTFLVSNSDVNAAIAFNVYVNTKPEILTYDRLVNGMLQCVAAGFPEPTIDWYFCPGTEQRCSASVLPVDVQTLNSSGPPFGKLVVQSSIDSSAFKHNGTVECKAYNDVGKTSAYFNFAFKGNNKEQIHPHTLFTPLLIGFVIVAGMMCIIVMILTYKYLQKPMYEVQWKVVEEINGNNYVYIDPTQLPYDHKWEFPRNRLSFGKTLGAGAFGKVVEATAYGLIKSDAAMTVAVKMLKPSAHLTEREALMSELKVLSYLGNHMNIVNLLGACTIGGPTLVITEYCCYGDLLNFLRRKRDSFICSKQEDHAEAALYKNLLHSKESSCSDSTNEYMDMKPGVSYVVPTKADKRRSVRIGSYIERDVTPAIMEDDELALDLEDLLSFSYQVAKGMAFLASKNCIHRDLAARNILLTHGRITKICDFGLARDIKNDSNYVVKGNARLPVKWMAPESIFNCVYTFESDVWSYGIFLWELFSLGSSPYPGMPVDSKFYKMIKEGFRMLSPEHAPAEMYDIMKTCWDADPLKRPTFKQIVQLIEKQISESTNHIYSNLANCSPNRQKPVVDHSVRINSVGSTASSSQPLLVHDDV

As usually defined, the IC50 is the concentration that gives 50% inhibition. For the compound `Cc1ncc(NC(=O)Cc2ccc(-c3cnc(Nc4cnn(C(F)F)c4)nc3)cc2)cc1C(F)(F)F` [Compound P-0210, 2-[4-[2-[[1-(difluoromethyl)pyrazol-4-yl]amino]pyrimidin-5-yl]phenyl]-N-[6-methyl-5-(trifluoromethyl)-3-pyridyl]acetamide], the concentration for half-maximal inhibition (IC50) on FLT3-D835Y and on c-KIT was 0.0001 to 10 µM throughout.
For `COc1ncc(NC(=O)Cc2ccc(-c3cnc(Nc4cnn(C(F)F)c4)nc3)cc2)cc1C(F)(F)F` [Compound P-0211, 2-[4-[2-[[1-(difluoromethyl)pyrazol-4-yl]amino]pyrimidin-5-yl]phenyl]-N-[6-methoxy-5-(trifluoromethyl)-3-pyridyl]acetamide], the half-inhibitory concentration (IC50) on FLT3-D835Y and at c-KIT was 0.0001 to 10 µM in each case.
For the compound `COc1ncc(NC(=O)Cc2ccc(-c3cnc4[nH]nc(OC)c4c3)cc2)cc1C(F)(F)F` [Compound P-0212, 2-[4-(3-methoxy-1H-pyrazolo[3,4-b]pyridin-5-yl)phenyl]-N-[6-methoxy-5-(trifluoromethyl)-3-pyridyl]acetamide], the half-maximal inhibitory concentration (IC50) on FLT3-D835Y and on c-KIT was 0.0001 to 10 µM each time.
With `CCOc1n[nH]c2ncc(-c3ccc(CC(=O)Nc4cnc(OC)c(C(F)(F)F)c4)cc3)cc12` [Compound P-0213, 2-(4-(3-ethoxy-1H-pyrazolo[3,4-b]pyridin-5-yl)phenyl)-N-(6-methoxy-5-(trifluoromethyl)pyridin-3-yl)acetamide], the half-maximal inhibitory concentration (IC50) on FLT3-D835Y and on c-KIT was 0.0001 to 10 µM each time.
For `COc1ncc(NC(=O)Cc2ccc(-c3cnc4[nH]c(C#CC(C)(C)O)cc4c3)cc2)cc1C(F)(F)F` [Compound P-0214, 2-(4-(2-(3-hydroxy-3-methylbut-1-yn-1-yl)-1H-pyrrolo[2,3-b]pyridin-5-yl)phenyl)-N-(6-methoxy-5-(trifluoromethyl)pyridin-3-yl)acetamide], the IC50 at FLT3-D835Y and at c-KIT was 0.0001 to 10 µM each time.
Regarding `COc1ncc(NC(=O)Cc2ccc(-c3cnc4[nH]nc(NC(=O)C(F)(F)F)c4c3)cc2)cc1C(F)(F)F` [Compound P-0215, 2,2,2-trifluoro-N-[5-[4-[2-[[6-methoxy-5-(trifluoromethyl)-3-pyridyl]amino]-2-oxo-ethyl]phenyl]-1H-pyrazolo[3,4-b]pyridin-3-yl]acetamide], the IC50 at FLT3-D835Y and at c-KIT was 0.0001 to 10 µM each time.
Regarding `COc1ncc(NC(=O)Cc2ccc(-c3cnc4[nH]nc(N)c4c3)cc2)cc1C(F)(F)F` [Compound P-0216, 2-(4-(3-amino-1H-pyrazolo[3,4-b]pyridin-5-yl)phenyl)-N-(6-methoxy-5-(trifluoromethyl)pyridin-3-yl)acetamide], the IC50 at FLT3-D835Y and on c-KIT was 0.0001 to 10 µM each time.
Consider `CCOc1n[nH]c2ncc(-c3ccc(CC(=O)Nc4cnc(C)c(C(F)(F)F)c4)cc3)cc12` [Compound P-0217, 2-[4-(3-ethoxy-1H-pyrazolo[3,4-b]pyridin-5-yl)phenyl]-N-[6-methyl-5-(trifluoromethyl)-3-pyridyl]acetamide], for which the 50% inhibitory concentration (IC50) on FLT3-D835Y and on c-KIT was 0.0001 to 10 µM in each case.
As for `COc1n[nH]c2ncc(-c3ccc(CC(=O)Nc4cnc(C)c(C(F)(F)F)c4)cc3)cc12` [Compound P-0218, 2-[4-(3-methoxy-1H-pyrazolo[3,4-b]pyridin-5-yl)phenyl]-N-[6-methyl-5-(trifluoromethyl)-3-pyridyl]acetamide], the IC50 at FLT3-D835Y and at c-KIT was 0.0001 to 10 µM in each case.
In the case of `Cc1ncc(NC(=O)Cc2ccc(-c3cnc4[nH]c(C#CC(C)(C)O)cc4c3)cc2)cc1C(F)(F)F` [Compound P-0220, 2-[4-[2-(3-hydroxy-3-methyl-but-1-ynyl)-1H-pyrrolo[2,3-b]pyridin-5-yl]phenyl]-N-[6-methyl-5-(trifluoromethyl)-3-pyridyl]acetamide], the half-maximal inhibitory concentration (IC50) at FLT3-D835Y and at c-KIT was 0.0001 to 10 µM each time.
